{
  "source": "patent US10675271B2",
  "about": "“Clonidine and/or clonidine derivatives for use in the prevention and/or treatment of adverse side effects of chemotherapy” (ONXEO, priority 2015, dated 2020)",
  "test_system": "patients with head and neck cancer",
  "description": "A phase II, multicentre, randomised, double-blind, placebo-controlled study was performed to compare the efficacy of the mucoadhesive buccal tablets of Example 1D, comprising 50 μg of clonidine hydrochloride, applied once daily to that of placebo in the prevention and treatment of […] following radiotherapy in patients with head and neck cancer (suffering from a newly diagnosed squamous cell carcinoma of the oral cavity, oropharynx, hypopharynx or larynx). These patients received, within 15 weeks after curative surgery, a cumulative radiation dose of radiation ranging from 50 to 70 Gray in oral cavity, based on a daily dosing between 1.8 and 2.2 Gy, combined with platinum-based chemotherapy, based on a weekly or tri-weekly cycle. Clonidine was administered in the form of a mucoadhesive tablet that was applied into the mouth, on the upper gum, for about 30 seconds, after which it remained in place for several hours. The treatment with clonidine hydrochloride started from 1 to 3 days before radiotherapy until the end of radiotherapy, for up to 8 weeks. Patients were evaluated twice a week during the radiotherapy period, then one month after stop of radiotherapy.",
  "key": {"[1]": {"conditions": "mucoadhesive buccal tablet of Example 1D, 50 μg clonidine hydrochloride once daily, up to 8 weeks, radiotherapy plus platinum-based chemotherapy, placebo 12.9%"}},
  "data": [
    {"smiles": "Cl.Clc1cccc(Cl)c1NC1=NCCN1", "note": "[Clonidine]", "values": [
      {"measurement": "occurrence of nausea", "setting": "additional identical experiment using 100 μg of clonidine hydrochloride", "value": 46.9, "unit": "%"},
      {"measurement": "Cough (reported adverse side effect, occurrence)", "setting": "[1]", "value": 5.5, "unit": "%"},
      {"measurement": "Fatigue (reported adverse side effect, occurrence)", "setting": "[1]", "value": 9.1, "unit": "%"},
      {"measurement": "Headache (reported adverse side effect, occurrence)", "setting": "mucoadhesive buccal tablet of Example 1D, 50 μg clonidine hydrochloride once daily, up to 8 weeks, radiotherapy plus platinum-based chemotherapy, placebo 14.5%", "value": 9.1, "unit": "%"},
      {"measurement": "Diarrhoea (reported adverse side effect, occurrence)", "setting": "mucoadhesive buccal tablet of Example 1D, 50 μg clonidine hydrochloride once daily, up to 8 weeks, radiotherapy plus platinum-based chemotherapy, placebo 21.0%", "value": 12.7, "unit": "%"},
      {"measurement": "Asthenia (reported adverse side effect, occurrence)", "setting": "mucoadhesive buccal tablet of Example 1D, 50 μg clonidine hydrochloride once daily, up to 8 weeks, radiotherapy plus platinum-based chemotherapy, placebo 24.2%", "value": 16.4, "unit": "%"},
      {"measurement": "Vomiting (reported adverse side effect, occurrence)", "setting": "mucoadhesive buccal tablet of Example 1D, 50 μg clonidine hydrochloride once daily, up to 8 weeks, radiotherapy plus platinum-based chemotherapy, placebo 38.7%", "value": 25.5, "unit": "%"},
      {"measurement": "Nausea (reported adverse side effect, occurrence)", "setting": "mucoadhesive buccal tablet of Example 1D, 50 μg clonidine hydrochloride once daily, up to 8 weeks, radiotherapy plus platinum-based chemotherapy, placebo 71.0%", "value": 52.7, "unit": "%"}
    ]}
  ]
}
